Experiments:
normal volunteers [1] = system: normal volunteers; set-up: method as in PMID 19643947, PMID 21426372, PMID 24341382; settings: cited from earlier work
BALB/c mice [2] = assay: House dust mite/Rhinovirus exacerbated asthma model; type: in vivo, mouse; settings: 24 hours post RV1b infection; for Total BALF neutrophils: PXS-4728A 2, dexamethasone 2, azithromycin 25 mg.kg^−1 ip.
Description: Study performed at the University of Newcastle under local ethics committee. BALB/c mice were sensitized and challenged intranasally to 50 μg of crude HDM extract (Dermatophagoides pteronyssinus extract was obtained from Greer Laboratories) on days 0, 1 and 2 followed by four exposures of 5 μg HDM daily from day 14 to day 17 delivered in 50 μl of sterile saline. Animals were then infected on day 18 with infective Human Rhinovirus 1b RV1B41 (2.5 × 10^6 median tissue culture infective dose) intranasally. Mice were intranasally administered 50 μl infective or ultraviolet light (UV)–inactivated RV1B41. Mice were euthanized 24 hours after the rhinovirus challenge. BAL analysis was performed for total and differential counts and airway hyperreactivity (AHR) was assessed invasively by measurement of total lung resistance and dynamic compliance (BUXCO) in response to methacholine challenge as previously described. […]. Dose of azithromycin was chosen based on previously described findings, in respiratory viral infection models.

[3] = system: patients with severe neutrophilic asthma; set-up: method as in PMID 23291349; settings: significance lost when all patients analysed together; cited from earlier work
normal volunteers [4] = system: normal volunteers; set-up: method as in PMID 19643947, PMID 21426372, PMID 24341382; settings: cited from earlier work; remark: listed apart in the source
BALB/c mice [5] = assay: Klebsiella pneumoniae lung infection; settings: 24 hours
BALB/c mice [6] = assay: LPS airway inflammation, 6 hour time point; settings: 6 hours after LPS; PXS-4728A 0.2 or 2 mg.kg^−1, dexamethasone 10 mg.kg^−1, oral 1 hour prior
C57/BL6 mice = assay: Cecal ligation and puncture (CLP) induced sepsis; settings: 6 hours; PXS-4728A 6 mg.kg^−1, dexamethasone 5 mg.kg^−1, oral 1 hour prior to surgery
[7] = PXS-4728A 6 mg.kg^−1, dexamethasone 10 mg.kg^−1, oral 1 hour prior to infection

C[C@H](CO)Nc1nc(SCc2cccc(F)c2F)nc2[nH]c(=O)sc12 [AZD8309]
Efficacy during inhaled LPS challenge (normal volunteers [1]): efficacious

CC[C@H]1OC(=O)[C@H](C)[C@@H](O[C@H]2C[C@@](C)(OC)[C@@H](O)[C@H](C)O2)[C@H](C)[C@@H](O[C@@H]2O[C@H](C)C[C@H](N(C)C)[C@H]2O)[C@](C)(O)C[C@@H](C)CN(C)[C@H](C)[C@@H](O)[C@]1(C)O [azithromycin]
Airways hyperreactivity to methacholine challenge (BALB/c mice [2]; PXS-4728A 2, azithromycin 25 mg.kg^−1 ip.): significantly reduced | Total BALF neutrophils (BALB/c mice [2]): significantly dampened | Exacerbation rates [3]: reduced exacerbation rates

O=C(Nc1ccc(Cl)c(S(=O)(=O)N2CCNCC2)c1O)Nc1cccc(F)c1Cl [SB-656933]
Increased neutrophil content in sputum as a result of ozone challenge (normal volunteers [4]): inhibit

C[C@@H]1C[C@H]2[C@@H]3CCC4=CC(=O)C=C[C@]4(C)[C@@]3(F)[C@@H](O)C[C@]2(C)[C@@]1(O)C(=O)CO [dexamethasone, reference compound]
Total BALF neutrophils (BALB/c mice [2]): no impact | Neutrophil migration into the airway spaces (BALF) (BALB/c mice [5]; [7]): significantly dampened | Total leukocyte migration into the airway spaces (BALF) (BALB/c mice [5]; [7]): significantly dampened | Log 10-CFU in the lung (bacterial load), average (BALB/c mice [5]; PXS-4728A 6 mg.kg^−1, dexamethasone 10 mg.kg^−1, vehicle 7.59): 8.86 LOG 10-CFU | Influx of neutrophils in BALF (BALB/c mice [6]): reduction | Peritoneal neutrophils (C57/BL6 mice): greatly diminished | Total peritoneal inflammatory cells (C57/BL6 mice): greatly diminished

CC[C@@H](Nc1c(Nc2cccc(C(=O)N(C)C)c2O)c(=O)c1=O)c1ccc(C)o1 [SCH527123]
Increased neutrophil content in sputum as a result of ozone challenge (normal volunteers [4]): inhibit

— publication PMC4389443 (Respiratory Research, 2015)
